PubChem BioAssay AID1918930 (Molecular Pharmacology Branch, DTP, NCI, 2023)

Tested on: 233499-124-R-J3-PDC complex spheroid viability, % test/control
Assay: Anticancer human tumor 233499-124-R-J3-PDC patient-derived colon adenocarcinoma cell line growth inhibition
Settings: for viability, T/C: stronger effect = lower value
How it was run: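 Complex spheroids of tumor cells with HUVEC and human MSCs, exposed to iadademstat combined with other agents. Each agent tested in half-log steps from near clinical Cmax (else 10 microM top), DMSO ≤0.25%.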

[1] = curve of first compound, second compound 0.1 µM
[2] = curve of first compound, second compound 0.316 µM
[3] = curve of first compound, second compound 1 µM
[4] = curve of first compound, second compound 3.16 µM
[5] = curve of first compound, second compound 10 µM
[6] = second compound 0.1 µM, first compound 0.00316 µM
[7] = second compound 0.1 µM, first compound 0.01 µM
[8] = second compound 0.1 µM, first compound 0.0316 µM
[9] = second compound 0.1 µM, first compound 0.1 µM
[10] = second compound 0.316 µM, first compound 0.00316 µM
[11] = second compound 0.316 µM, first compound 0.01 µM
[12] = second compound 0.316 µM, first compound 0.0316 µM
[13] = second compound 0.316 µM, first compound 0.1 µM
[14] = second compound 1 µM, first compound 0.00316 µM
[15] = second compound 1 µM, first compound 0.01 µM
[16] = second compound 1 µM, first compound 0.0316 µM
[17] = second compound 1 µM, first compound 0.1 µM
[18] = second compound 3.16 µM, first compound 0.00316 µM
[19] = second compound 3.16 µM, first compound 0.01 µM
[20] = second compound 3.16 µM, first compound 0.0316 µM
[21] = second compound 3.16 µM, first compound 0.1 µM
[22] = second compound 10 µM, first compound 0.00316 µM
[23] = second compound 10 µM, first compound 0.01 µM
[24] = second compound 10 µM, first compound 0.0316 µM
[25] = second compound 10 µM, first compound 0.1 µM
[26] = second compound 0.1 µM, first compound 0.316 µM
[27] = second compound 0.1 µM, first compound 1 µM
[28] = second compound 0.316 µM, first compound 0.316 µM
[29] = second compound 0.316 µM, first compound 1 µM
[30] = second compound 1 µM, first compound 0.316 µM
[31] = second compound 1 µM, first compound 1 µM
[32] = second compound 3.16 µM, first compound 0.316 µM
[33] = second compound 3.16 µM, first compound 1 µM
[34] = second compound 10 µM, first compound 0.316 µM
[35] = second compound 10 µM, first compound 1 µM
[36] = second compound 0.1 µM, first compound 3.16 µM
[37] = second compound 0.1 µM, first compound 10 µM
[38] = second compound 0.316 µM, first compound 3.16 µM
[39] = second compound 0.316 µM, first compound 10 µM
[40] = second compound 1 µM, first compound 3.16 µM
[41] = second compound 1 µM, first compound 10 µM
[42] = second compound 3.16 µM, first compound 3.16 µM
[43] = second compound 3.16 µM, first compound 10 µM
[44] = second compound 10 µM, first compound 3.16 µM
[45] = second compound 10 µM, first compound 10 µM
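Also: spheroids exposed to agents for one week before readout.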

SMILES | IC50 [1] [µM] | IC50 [2] [µM] | IC50 [3] [µM] | IC50 [4] [µM] | IC50 [5] [µM] | viability, T/C [8] [%] | viability, T/C [9] [%] | viability, T/C [12] [%] | viability, T/C [13] [%] | viability, T/C [16] [%] | viability, T/C [17] [%] | viability, T/C [20] [%] | viability, T/C [21] [%] | viability, T/C [24] [%] | viability, T/C [25] [%] | viability, T/C [26] [%] | viability, T/C [27] [%] | viability, T/C [28] [%] | viability, T/C [29] [%] | viability, T/C [30] [%] | other results
Cn1ncnc1C1c2n[nH]c(=O)c3cc(F)cc(c23)NC1c1ccc(F)cc1 (configuration not stated) + NC1CCC(NC2CC2c2ccccc2)CC1 | > 0.1 | > 0.1 | > 0.1 | > 0.1 | > 0.1 | 96.3 | 77.8 | 106 | 110 | 70.7 | 97 | 76.1 | 79.1 | 65.1 | 68.5 |  |  |  |  |  | viability, T/C (second compound 0.1 µM, first compound 0.000316 µM): 103%; viability, T/C (second compound 0.1 µM, first compound 0.001 µM): 99.2%; viability, T/C [6]: 94.4%; viability, T/C [7]: 104%; viability, T/C (second compound 0.316 µM, first compound 0.000316 µM): 113%; viability, T/C (second compound 0.316 µM, first compound 0.001 µM): 110%; viability, T/C [10]: 100%; viability, T/C [11]: 102%; viability, T/C (second compound 1 µM, first compound 0.000316 µM): 83.8%; viability, T/C (second compound 1 µM, first compound 0.001 µM): 87.1%; viability, T/C [14]: 78.1%; viability, T/C [15]: 87.5%; viability, T/C (second compound 3.16 µM, first compound 0.000316 µM): 83%; viability, T/C (second compound 3.16 µM, first compound 0.001 µM): 85.7%; viability, T/C [18]: 83.6%; viability, T/C [19]: 81.6%; viability, T/C (second compound 10 µM, first compound 0.000316 µM): 75.7%; viability, T/C (second compound 10 µM, first compound 0.001 µM): 73.4%; viability, T/C [22]: 73.4%; viability, T/C [23]: 80.9%
Nc1ncn(C2CC(O)C(CO)O2)c(=O)n1 (configuration not stated) + NC1CCC(NC2CC2c2ccccc2)CC1 | > 1 | > 1 | > 1 | > 1 | > 1 | 83.8 | 69 | 87.2 | 86.8 | 74.8 | 72.5 | 73.6 | 82.6 | 68.7 | 65.8 | 110 | 111 | 98.8 | 77.6 | 85.1 | viability, T/C [6]: 77.1%; viability, T/C [7]: 83.9%; viability, T/C [10]: 92.6%; viability, T/C [11]: 96.8%; viability, T/C [14]: 89.3%; viability, T/C [15]: 75.2%; viability, T/C [31]: 94.8%; viability, T/C [18]: 82.9%; viability, T/C [19]: 72.2%; viability, T/C [32]: 55.8%; viability, T/C [33]: 101%; viability, T/C [22]: 74.2%; viability, T/C [23]: 71.2%; viability, T/C [34]: 73.1%; viability, T/C [35]: 82.1%
CC(C)c1c(-c2ccccc2)nc2c(C#N)c[nH]n2c1=O + NC1CC1c1ccc(-c2cccc(O)c2)cc1 | > 10 | > 10 | > 10 | > 10 | > 10 | 108 | 117 | 100 | 110 | 86.8 | 93.6 | 87.6 | 93.5 | 76.1 | 78 | 110 | 100 | 109 | 118 | 95.1 | viability, T/C [36]: 108%; viability, T/C [37]: 104%; viability, T/C [38]: 117%; viability, T/C [39]: 110%; viability, T/C [31]: 92.8%; viability, T/C [40]: 105%; viability, T/C [41]: 116%; viability, T/C [32]: 97.3%; viability, T/C [33]: 98.9%; viability, T/C [42]: 114%; viability, T/C [43]: 109%; viability, T/C [34]: 93.3%; viability, T/C [35]: 101%; viability, T/C [44]: 109%; viability, T/C [45]: 114%
COc1cc(Nc2ncc3c(n2)-c2ccc(Cl)cc2C(c2c(F)cccc2OC)=NC3)ccc1C(=O)O |  |  |  |  |  |  |  |  |  |  |  |  |  |  |  |  |  |  |  |  | viability, T/C (compound 0.00316 µM): 43.2%; viability, T/C (compound 0.01 µM): 61%; viability, T/C (compound 0.0316 µM): 55.2%; viability, T/C (compound 0.1 µM): 63.2%; viability, T/C (compound 0.316 µM): 63.9%; viability, T/C (compound 1 µM): 84.3%; IC50 (curve of compound): < 0.00316 µM
CC1COCCN1c1cc(C2(S(C)(=N)=O)CC2)nc(-c2ccnc3[nH]ccc23)n1 (configuration not stated) + NC1CC1c1ccc(-c2cccc(O)c2)cc1 | > 10 | > 10 | > 10 | 4.43 | 3.1 | 110 | 98.1 | 105 | 114 | 95.6 | 92.5 | 108 | 96.3 | 92.2 | 77.5 | 109 | 95.5 | 101 | 87.6 | 93.9 | viability, T/C [36]: 57%; viability, T/C [37]: 65.6%; viability, T/C [38]: 60.5%; viability, T/C [39]: 69.3%; viability, T/C [31]: 87.8%; viability, T/C [40]: 59.7%; viability, T/C [41]: 52.7%; viability, T/C [32]: 90.3%; viability, T/C [33]: 70.1%; viability, T/C [42]: 48.6%; viability, T/C [43]: 47.1%; viability, T/C [34]: 80.6%; viability, T/C [35]: 78.2%; viability, T/C [44]: 45.3%; viability, T/C [45]: 53.8%
